Reference: patent publication US9359196B2, “Antiproliferative compositions comprising curcumin analogs and methods of producing and using same” (The Board of Regents of the University of Oklahoma, priority 2009, dated 2016)
pIC50: −log10 of the molar value. One block for each compound: values may come before it.

Assays:
[1] = test system: lung adenocarcinoma cell line H441; test: Cell proliferation (hexosaminidase assay) in lung adenocarcinoma H441 cells, Example 1; format: cell-based, human; details: Homo sapiens, NCI-H441, 24 h of treatment, 1-100 μM tested, fitted plot, read-out: IC50 value
Description: Cell Proliferation Studies: In order to assess the anti-proliferative activity of the synthesized compounds, an in vitro cell culture system of lung adenocarcinoma cell line H441 was used. The cell detachment and anti-proliferative activity was measured as a decrease in hexosaminidase enzyme activity associated with remainder of the adhered cells. [Landegren, 1984] […] The concentration versus cell proliferation plots were analyzed by an exponential fit (Table 1). The results were compared with the anti-proliferative activity of compound 1.
Cell Culture and drug treatment: Human lung adenocarcinoma cell line NCI-H441 (ATCC Number: HTB-174) was obtained from the American Type Culture Collection (Manassas, Va.). H441 cells were maintained at 37° C. with 5% CO2 in McCoy's 5A Medium (Invitrogen, Carlsbad, Calif.) supplemented with 5% heat-inactivated fetal bovine serum (FBS). All media contained gentamicin at 50 μg/ml (GIBCO Laboratories, Grand Island, N.Y.). Other cells lines (PANC-1, MiaPaCa-2 and PC-3) were also similarly maintained, except that the cell culture medium was RPMI 1640 instead of McCoy's.
To evaluate the anti-proliferative activity of synthesized bis(2-fluorobenzylidene)-4-piperidone and its derivatives, the cells were seeded in 96-well flat-bottom tissue culture plates at a density of 10×10^3 cells per well. The cells were allowed to attach and grow overnight. The test compounds were solubilized in dimethyl sulfoxide (DMSO), filtered through 0.2 μm nylon filter and added to cells at 1, 10, 25 and 100 μM concentrations in culture medium supplemented with 5% FBS. The DMSO concentration was maintained at 0.1% per well. Control wells received equivalent volume of DMSO without any test compounds. The cells were allowed to remain in the treatment medium for 24, 48 and 72 hours.
Cell Proliferation: The total number of cells after the treatment period was estimated by the hexosaminidase assay. [Landegren, 1984] Briefly, the medium was removed and hexosaminidase substrate solution in citrate buffer pH 5 (7.5 mM), […] (Calbiochem, San Diego, Calif.) was added at 60 μl per well. The plate was incubated at 37° C. in 100% humidity for 30 minutes, before stopping the reaction with 90 μl of 50 mM glycine containing 5 mM of EDTA (pH 10.4). The absorbance was measured at 405 nm. The experiments were conducted in triplicate, and repeated at least twice. The data were analyzed as percent of control, where the control wells were treated with equivalent amounts of DMSO alone, and the analyzed data was presented as average±standard error of mean. The differences among mean values were deemed significant at p<0.05.
For IC50 calculations, a plot between the drug concentration and hexosaminidase activity was generated and the data was fitted either linearly or exponentially. The best fit was used for further processing of data.

H441 cells [2] = test: Transmission electron microscopy of treated H441 cells (autophagy); format: cell-based, human; details: 24 hour treatment, 1 and 10 μM
Description: Transmission Electron Microscopy (TEM): TEM was performed after 24 hour treatment with 1 and 10 μM of compound 1 or compound 29 (CLEFMA). The cells were fixed in 0.1M sodium cacodylate buffer containing 4% paraformaldehyde (PFA) and 2% glutaraldehyde for 4 h at room temperature. The samples were post-fixed in 1% osmium tetroxide for 1.5 h and washed with 0.1M sodium cacodylate buffer, followed by dehydration in an ethanol series of 50%, 60%, 75%, 85%, and 95% for 15 minutes each. The cells were washed twice in 100% Ethanol and passed through a series of epon-araldite (6.2 g epon+4.4 g araldite+12.4 g of dodecenyl succinic anhydride+0.8 g N,N-dimethylbenzylamine) solution in ethanol, [Matsko et al., 2005] before embedding the cells in epon-araldite resin. Finally, 100 nm sections were cut using a microtome, and the sections were placed on glow-discharged 300 mesh Copper grids. The ultrasections were stained with Sato's lead (mixture of calcinated lead citrate, lead nitrate, lead acetate and sodium citrate), and observed by a Hitachi H-7600 Transmission Electron Microscope at 2500× (Oklahoma Medical Research Foundation Imaging and core facility, Oklahoma City).

H441 cells [3] = test: Monodansylcadaverine fluorescence microscopy of autophagosomes in H441 cells; format: cell-based, human
Description: Monodansylcadaverine (MDC) is an autofluorescent marker for autophagic vacuoles. [Biederbick et al., 1995] It was found the emergence of intense MDC-fluorescence in the treated cells. The fluorescence vanished when the cells were treated with 3-methyl adenine (3-MA). […] [Seglen et al., 1982]

[4] = test system: Human lung adenocarcinoma cell line NCI-H441; test: In vitro anti-proliferative activity in H441 cells (hexosaminidase), Example 2; format: cell-based
Description: Human lung adenocarcinoma cell line NCI-H441 (ATCC # HTB-174) and normal lung fibroblasts LL-24 (ATCC #CCL-151) were obtained from American Type Culture Collection (Manassas, Va.). The cells were maintained at 37° C. with 5% CO2 in RPMI 1640 medium (Invitrogen, Carlsbad, Calif.). The medium was supplemented with 10% heat-inactivated fetal bovine serum and 50 μg/ml of gentamicin (GIBCO Laboratories, Grand Island, N.Y.). For cell proliferation assay, the cells were seeded in 96-well flat-bottom tissue culture plates at a density of 0.5−1×10^4 cells per well. The cells were allowed to adhere and grow overnight, followed by treatment with CLEFMA or CLEFMA-liposomes. The concentration of CLEFMA was maintained in the range of 0.1-25 μM in 100 μl of RPMI 1640 medium. For comparison, the cells were also treated with 1 and 10 μM natural curcumin and EF24. EF24 is a potent synthetic curcuminoid and a close analog of CLEFMA [Adams et al., 2004]. All solutions of plain drugs were made in dimethylsulfoxide (DMSO). The concentration of DMSO in the treatment medium was maintained at 0.1%. The control wells received equivalent amounts of DMSO or phospholipid-matched control liposomes. Inhibition of cell proliferation was determined by measuring a decrease in hexosaminidase activity as described by Landegren [Landegren, 1984]. Para-nitrophenol-N-acetyl-beta-D-glucosaminide (60 μl per well) was used as the substrate for the hexosaminidase enzyme. The results of hexosaminidase assay were also confirmed by visualization of cultured cells under a microscope.

Solubility in solvents = format: physicochemical
Source text: The goal was to synthesize compounds that can be inserted into lipid carriers, such as liposomes. […] The retention of activity by compounds with 12-14 carbon unsaturated a chain modification is encouraging, for it enables the incorporation of these compounds in a lipid carrier system. […] This appears to be the first report where piperidinyl nitrogen of chalcones has been modified with lipid chains.

pIC50 [1]: 4.36
SMILES: O=C1C(=Cc2ccccc2F)CNCC1=Cc1ccccc1F [Compound 1, 3,5-Bis(2-fluorobenzylidene)-4-piperidone, reference compound]
change in cellular architecture (TEM) (H441 cells [2]): induced a substantial change in cellular architecture
autophagosome formation (MDC fluorescence) (H441 cells [3]): appearance of intracellular vacuoles or autophagosomes

SMILES: N[C@@H](CCC(=O)N[C@@H](CS)C(=O)NCC(=O)O)C(=O)O [Glutathione, glutathione]
anti-proliferative activity in H441 cells [4]: not anti-proliferative by itself

melting point: 70 to 71 °C
SMILES: CCCCCCCCCCCCCCCCCC(=O)N1CC(=Cc2ccccc2F)C(=O)C(=Cc2ccccc2F)C1 [Compound 25, 3,5-Bis-(2-fluorobenzylidene)-1-octadecanoyl-4-piperidone]
solubility in solvents (Solubility in solvents): insoluble in all common solvents except chloroform
